Literature values, collected in patent US8273721B2, “Combination treatment for bladder cancer” (Endo Pharmaceuticals Solutions Inc., priority 2008, dated 2012).

Row | Compound | solubility in water (water) | solubility in organic solvents (in words) (methylene chloride, ethanol, methanol and acetone) | solubility in water (in words) (water)
1 | O=C(OC1CC2CCC(C1)[N+]21CCCC1)C(O)(c1ccccc1)c1ccccc1.[Cl-] (stereo not drawn) [trospium chloride, spiro[8-azoniabicyclo[3,2,1]octane-8,1′pyrrolidinium]-3-[(hydroxydiphenyl-acetyl)-oxy]chloride(1α, 3β, 5α)(9Cl)] | approximately 1 g/2 mL | – | –
2 | (2S-cis)-2-[1,2,3,4,6,11-hexahydro-2,5,12-trihydroxy-7-methoxy-6,11-dioxo-4-[[2,3,6-trideoxy-3-[(trifluoroacetyl)amino]-α-L-lyxo-hexopyranosyl]oxyl]-2-naphthacenyl]-2-oxoethyl pentanoate [Valrubicin] | – | soluble | relatively insoluble
